Measurements as given in publication PMC12097015, “Development of MDM2‐Targeting PROTAC for Advancing Bone Regeneration” (Advanced Science, 2025).
One block for each compound: values may come before it.

Tests used:
[1] = biological target: T1, MDM2 (Homo sapiens, UniProt Q00987); assay: MDM2 degradation by western blot in hBMSCs; assay type: cell-based; design: endogenous in cells; host or cells: hBMSCs; conditions: for MDM2 degradation (western blot) / decrease in MDM2 levels compared to the basal level: 10 μΜ for 1 h
Procedure: Human Bone Marrow‐derived Mesenchymal Stem Cells (hBMSCs) were provided by Professor Lee's laboratory, and cells from passages four to nine were used for all experiments. hBMSCs were cultured in alpha‐minimum essential medium (Welgene, LM008‐01) supplemented with 10% Fetal Bovine Serum (FBS) (Gibco, US origin, 16000–044) and 1% penicillin/streptomycin (Gibco, 15140‐122).
(§1) After discarding the medium and washing the cells twice with cold dPBS, the cells were collected using a scraper and lysed using RIPA buffer (GenDEPOT, R4200‐010) containing protease and phosphatase inhibitors (GenDEPOT, P3200‐001). The collected samples were centrifuged at 13 200 rpm for 10 min at 4 °C, and the supernatant containing total protein was collected. SDS‐PAGE gels (10–12%) were prepared, and protein samples were mixed with 5X loading buffer containing reducing agent (Biosesang, S2002) and heated at 98 °C for 5 min. Equal amounts of protein samples were loaded onto a gel, separated by electrophoresis, and transferred onto nitrocellulose membranes using a Dry Transfer Stacks Kit (Invitrogen, IB23001). The membrane was blocked with 5% nonfat milk in 1X TBST for 1 h at room temperature to prevent nonspecific binding. The membranes were incubated with primary antibodies specific to the target proteins overnight at 4 °C with gentle shaking. The next day, the membrane was washed three times with TBST at 10 min intervals to remove unbound primary antibodies. The membranes were incubated with secondary antibodies (anti‐rabbit and anti‐mouse) conjugated to horseradish peroxidase (HRP) for 1 h at room temperature. The membrane was washed three times with 1X TBST at 10 min intervals to remove unbound secondary antibodies. After washing, a chemiluminescent substrate (ECL, Millipore, WBULS0100) was applied to the membrane to visualize protein bands using a chemiluminescence detector (for the antibodies used, see Table S2, Supporting Information).
The DC50 and Dmax values were calculated by western blot band quantification according to compound concentrations. The quantification value was normalized to the value relative to the untreated group and calculated using the sigmoidal dose‐response (variable slope) equation in GraphPad Prism.
Target sequence in this assay (Q00987 whole entry): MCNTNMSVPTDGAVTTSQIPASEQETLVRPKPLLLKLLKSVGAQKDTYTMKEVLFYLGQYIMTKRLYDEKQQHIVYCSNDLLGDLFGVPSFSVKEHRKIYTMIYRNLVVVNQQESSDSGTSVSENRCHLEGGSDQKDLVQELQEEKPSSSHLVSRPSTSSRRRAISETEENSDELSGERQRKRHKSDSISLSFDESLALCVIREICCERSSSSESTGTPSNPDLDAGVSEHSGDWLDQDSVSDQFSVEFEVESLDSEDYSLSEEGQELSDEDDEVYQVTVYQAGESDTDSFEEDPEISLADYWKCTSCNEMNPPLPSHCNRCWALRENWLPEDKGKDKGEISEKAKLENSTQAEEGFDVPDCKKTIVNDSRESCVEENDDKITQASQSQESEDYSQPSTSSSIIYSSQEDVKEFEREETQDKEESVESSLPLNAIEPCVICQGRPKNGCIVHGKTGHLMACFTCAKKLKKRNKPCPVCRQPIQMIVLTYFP

[2] = test system: EGFP‐MDM2; assay: EGFP-MDM2 fluorescence / live imaging degradation assay; assay type: cell-based
Procedure: HeLa cells were cultured in DMEM (Welgene, LM001‐05) supplemented with 10% FBS (Welgene, S001‐07). For transient transfection, the cells were seeded at ≈70% confluence. The following day, transfection was performed using Lipofectamine 3000 (Invitrogen, L3000015) for 24 h according to the manufacturer's protocol. The cells were transfected with 100 ng of EGFP‐MDM2 per well in the 96‐well plate and were transfected with 2 µg of MDM2 WT and 2 µg of HA‐ubiquitin, total 4 µg per well in the 6‐well plate.
To construct the EGFP‐MDM2 plasmid DNA, MDM2 WT was amplified by PCR using specific primers. The PCR products were digested with BamH1 and EcoR1 to generate compatible ends. The plasmid backbone, EGFP‐C1, previously digested with the same enzyme, was ligated into the digested PCR product using T4 ligase (Biolabs, M0202S). The resulting plasmid construct was confirmed using restriction enzyme digestion and DNA sequencing. MDM2 WT (#16233) and HA‐ubiquitin (#18712) were purchased from Addgene (used primer sequences, see Table S2, Supporting Information).
Real‐time Live cell imaging (phase contrast, EGFP fluorescence) was performed to monitor EGFP‐MDM2 intensity at 7 min intervals after compound treatment using Cytation5 (Agilent) laser autofocus conditions to capture EGFP fluorescence to assess intensity. For fluorescence imaging, the cells were fixed using 4% PFA and washed three times with 1X dPBS. Fluorescence imaging was performed using the Cytation5. The intensity of fluorescence was assessed by tracking the fluorescence of individual cells in each image using the Time‐lapse analyzer or ROI measure feature of the Fiji ImageJ software (Version 1.54 h, USA).

[3] = biological target: T1, MDM2; assay: Microscale thermophoresis (MST) binding assay; design: made in house; host or cells: E. coli BL21 (DE3); conditions: His-Tag MDM2, n = 3, read-out: dissociation constant (Kd)
Target sequence in this assay (Q00987 whole entry, species assumed): as the sequence (Q00987 whole entry) above
Procedure: E. coli BL21 (DE3) competent cells transformed with pSPEL870 were used to express MDM2 protein.^[ [27] ^] The recombinant strain was cultured in 500 mL 2XYT at 37 °C until the optical density (OD600 ) reached 0.5. Protein expression was induced by adding 0.2 mM isopropyl β‐D‐1‐thiogalactopyranoside (IPTG; Bioshop, Canada) at 20 °C overnight. […] The protein was purified using Ni‐NTA resin (Qiagen, Germany), according to the manufacturer's protocol. The purified protein was buffer exchanged with phosphate‐buffered saline (PBS, pH 7.4) using a centrifugal filter unit (MWCO: 10 K; Merck Millipore, USA). The protein was stored at –20 °C in PBS with 20% glycerol and 1 mM dithiothreitol (DTT).
The His‐Tag MDM2 protein was labeled using a His‐Tag Labeling Kit RED‐tris‐NTA second Generation (NanoTemper, MO‐L018) according to the manufacturer's instructions. […] The final mixtures were transferred to capillaries (NanoTemper, MO‐K022) and the samples were measured using a Monolith NT.115Pico (NanoTemper) instrument (auto LED power; medium MST power). […] The signals were represented as normalized changes in fluorescence (Fnorm ) upon ligand binding. Baseline‐corrected normalized fluorescence (DFnorm ) was obtained from Fnorm values using MO Affinity Analysis, and the dissociation constants (Kd ) were determined by curve fitting (variable slope model) using GraphPad Prism 10.

[4] = test system: hBMSCs; assay: Cell viability / apoptosis of hBMSCs; assay type: cell-based, human
[5] = test system: hBMSCs; assay: Calcium deposit staining (X-Rhod-1) in hBMSCs; assay type: cell-based, human; conditions: X‐Rhod‐1, p < 0.05
Procedure: hBMSCs were differentiated in the presence of the 10 mM β‐glycerophosphate (Sigma‐Aldrich, G9422) and 50 µM ascorbic acid (Sigma‐Aldrich, A4403) in culture medium for 10 d. Subsequently, the cells were fixed with 4% PFA for 30 min, followed by two washes with Mg^2+‐and Ca^2+‐free dPBS (Welgene, LB‐204). To stain for calcium, X‐Rhod‐1 (Invitrogen, X14210) dye was diluted in Mg^2+‐and Ca^2+‐free dPBS at a concentration of 1 µM and incubated at room temperature in the dark for 1 h. The cells were then washed five times with Mg^2+‐and Ca^2+‐free dPBS at 10 min intervals. The samples were observed under a Cytation5 microscope (Agilent Technologies) at a wavelength of 595 nm.

[6] = test system: osteocalcin (OCN); assay: Immunostaining of osteogenic markers in hBMSCs; assay type: cell-based, human; conditions: 10 µM
[7] = test system: OVX-induced osteoporosis model; assay: Ovariectomy (OVX)-induced osteoporosis mouse model; assay type: in vivo, C57BL6 mice; conditions: OVX mice
Procedure: -Establishment of Ovariectomized Mice Model: The experimental protocols were approved by the IACUC (Approval code: IACUC230118) at the CHA Laboratory Animal Research Center. The mice were handled in compliance with the Guidelines for the Care and Use of Animals at the institution. Female C57BL6 mice (seven weeks old (n = 57)) were randomly divided into six groups (n = 8-10): […] All surgeries and pump implantations were performed under aseptic conditions. Mice were anesthetized before removing both sides of the ovaries. In the fourth week following surgery, an Alzet osmotic pump (Durect Corp, #1004) was implanted in the mice. […] Images were acquired at an effective pixel size of 50 μm (130 kV and 60 μA radiation source; 1.0 mm aluminum filter). Subsequently, 3D images were reconstructed from the 2D X-ray projections by implementing the Feldkamp algorithm, and appropriate image corrections, including ring artifact correction, beam hardening correction, and fine-tuning, were processed using NRecon software (SkyScan 1173, Belgium). The dynamic image range (contrast limits) was determined at 0-0.3 in units of attenuation coefficient and was applied to all datasets for optimum image contrast. After acquisition and reconstruction of the datasets, images were first reoriented on each 3D plane using DataViewer software (SkyScan 1173, Belgium) to align the long axis of the femur parallel to the coronal and sagittal planes. Next, 3D morphometric analyses of the distal femur and body of the lumbar vertebrae were performed using CT-Analyzer software (SkyScan 1173, Belgium). Regarding the region of interest (ROI), this work analyzed the 1.5 mm […] trabecular bone of the distal femur metaphysis, excluding the growth plate. The ROIs were delineated using a freehand drawing tool while maintaining a […] clearance from the endosteal surface. […] A global threshold of 60 (1.01573 g cm^-3) was applied to all scans to extract a physiologically accurate representation of the trabecular bone phase. […] All quantitative and structural parameters followed the nomenclature and units recommended by the American Society for Bone and Mineral Research (ASBMR) Histomorphometry Nomenclature Committee. After data quantification,^[ [26b] ^] 3D rendered images were generated to visualize the analyzed regions using the marching cube method. -H&E staining: Following decalcification, the specimens were fixed in paraffin and longitudinally sliced to a thickness of 3 μm using a microtome. Subsequently, each sample was affixed to a slide and exposed to a temperature of 55 °C. […] The slides underwent a 1 min wash in flowing purified water and immersed in Harris hematoxylin-I for 5 min, followed by a 1 min wash under flowing tap water. Sections were briefly immersed in ammonia water for 30 s and washed with tap water for 3 min. Subsequently, the sections were stained with Eosin Y for 2 min and 30 s, followed by gradual drying in 95%-100% ethanol. Any residual stain was rinsed with distilled water and each section was mounted. -Masson's trichrome staining: Following deparaffinization and hydration, the sections underwent treatment with a mordant containing a 5% iron alum solution in a dry oven at 56 °C for 30 min. Sections were washed under running tap water for 5-6 min to remove picric acid. Sections were stained with Weigert's iron hematoxylin solution for 10 min, followed by rinsing with purified water. A 5 min staining with Biebrich scarlet-acid fuchsin solution ensued, succeeded by washing with purified water. The sections were immersed in a phosphomolybdic-phosphotungstic acid solution for 5 min. After discarding the solution, the sections were washed with distilled water. Differentiation was performed in 1% glacial acetic acid solution for 3 min. The solution was discarded, and the remaining stain was washed with distilled water.

[8] = biological target: T1, MDM2; assay: Immunoblot with the intracellular proteasome system blocked by a proteasome inhibitor; assay type: cell-based; conditions: 0.5–2 μΜ carfilzomib with PROTAC
Procedure: as §1, with “After washing, a chemiluminescent substrate (ECL, Millipore, WBULS0100) was applied to the membrane to visualize protein bands using a chemiluminescence detector (for the antibodies used, see Table S2, Supporting Information).” left out
Target sequence in this assay (Q00987 whole entry, species assumed): as the sequence (Q00987 whole entry) above

[9] = alendronate comparison study, 0.5 mg kg^−1, n = 6

Compound: O=C1CCC(N2Cc3c(C#CCCCNC(=O)c4ccc(NC(=O)[C@@H]5NC6(CCCCC6)[C@@]6(C(=O)Nc7cc(Cl)ccc76)[C@H]5c5cccc(Cl)c5F)cc4)cccc3C2=O)C(=O)N1 (stereo partly drawn) [MD224, reference compound]
degradation efficiency of EGFP‐MDM2 by concentration ([2]; low concentrations (0.01–0.1 µM) versus higher concentrations (1–10 µM)): greater degradation efficiency of EGFP‐MDM2 compared to higher concentrations

Compound: COc1ccc(C2=N[C@@H](c3ccc(Cl)cc3)[C@@H](c3ccc(Cl)cc3)N2C(=O)N2CCNC(=O)C2)c(OC(C)C)c1 [Nutlin-3, reference compound]
cell viability [4]: without adversely affecting cell viability | calcium deposits compared to the control group [5]: significantly increased | osteocalcin (OCN) protein intensity compared to the control group [6]: no statistically significant difference | bone histology (H&E staining) versus OVX group ([7]; tibia and femur tissues): no significant differences

Compound: NCCCC(O)(P(=O)(O)O)P(=O)(O)O [alendronate, reference compound]
increase in trabecular thickness (Tb.Th) relative to the OVX group [7, 9]: 17.07% | recovery in BV/TV relative to the OVX group [7, 9]: 38.66%

Compound: CC(C)C[C@H](NC(=O)[C@H](CCc1ccccc1)NC(=O)CN1CCOCC1)C(=O)N[C@@H](Cc1ccccc1)C(=O)N[C@@H](CC(C)C)C(=O)[C@@]1(C)CO1 [carfilzomib]
effect on PROTAC-induced MDM2 proteolysis [8]: blocked the efficacy of PROTAC in a dose‐dependent manner

Further lines, with some results ahead:

MDM2 degradation (western blot) [1]: did not induce the degradation of MDM2
Compound: COc1ccc(C2=N[C@@H](c3ccc(Cl)cc3)[C@@H](c3ccc(Cl)cc3)N2C(=O)N2CCN(CC(=O)NCCOCCOCCNC(=O)CN3CCN(C(=O)N4C(c5ccc(OC)cc5OC(C)C)=N[C@H](c5ccc(Cl)cc5)[C@@H]4c4ccc(Cl)cc4)CC3=O)C(=O)C2)c(OC(C)C)c1 [CL117]

MDM2 degradation (western blot) [1]: did not induce the degradation of MDM2
Compound: COc1ccc(C2=N[C@H](c3ccc(Cl)cc3)[C@H](c3ccc(Cl)cc3)N2C(=O)N2CCN(CC(=O)OC(C)(C)C)C(=O)C2)c(OC(C)C)c1 [CL139]

decrease in MDM2 levels compared to the basal level [1]: over 80%
Compound: COc1ccc(C2=N[C@H](c3ccc(Cl)cc3)[C@H](c3ccc(Cl)cc3)N2C(=O)N2CCN(CC(=O)NCCCCCCCCCCCOc3cccc4c3C(=O)N(C3CCC(=O)NC3=O)C4=O)C(=O)C2)c(OC(C)C)c1 (stereo partly drawn) [CL145]

MDM2 degradation (western blot) [1]: effectively decreased MDM2 levels | decrease in MDM2 levels compared to the basal level [1]: over 80% | maximal degradation concentration (Dmax) ([1]; quantified western blot, 1 nM to 50 µM, n = 2): 0.5 μΜ | DC50 ([1]; quantified western blot, 1 nM to 50 µM, n = 2, read-out: half‐maximal degradation concentration (DC50)): 60 nM | Kd [3]: 1270 nM
Compound: COc1ccc(C2=NC(c3ccc(Cl)cc3)C(c3ccc(Cl)cc3)N2C(=O)N2CCN(CC(=O)NCCCCCCCC#Cc3cccc4c3C(=O)N(C3CCC(=O)NC3=O)C4=O)C(=O)C2)c(OC(C)C)c1 (stereo not drawn) [CL174]
concentration at which maximum degradation efficiency was achieved ([2]; live imaging, 0.01 to 10 µM): 1 µM | nuclear EGFP signal ([2]; live imaging, treatment for 4 h): almost completely turned off the nuclear EGFP signal
